Data published in patent US9695155B2, “Herbicidal substituted pyrimidinyloxy benzene compounds” (E. I. DU PONT DE NEMOURS AND COMPANY, priority 2013, dated 2017).

Experiments:
[1] = test system: ragweed; experiment: Test C preemergence; type: in vivo, Ambrosia elatior
Summary of the method: (§1)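 Visual ratings on a 0–100 scale (100 = complete control) were made versus untreated controls after 13–15 greenhouse days. Chemicals in a surfactant-containing non-phytotoxic solvent were applied either preemergence to seeds in loam–sand soil or postemergence to 1- to 4-leaf plants 2–18 cm tall.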

[2] = test system: giant foxtail; experiment: Test A postemergence; type: in vivo, Setaria faberii
Summary of the method: (§2)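 Scoring: eye-based comparison with untreated controls, 0 for no effect through 100 for complete control, at about day 10. Treatments: directed soil spray preemergence; foliar spray postemergence on 2–10 cm plants at the one- to two-leaf stage. Medium: loam soil with sand.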

[3] = test system: wheat; experiment: Test A preemergence; type: in vivo, Triticum aestivum; settings: for Wheat plant response rating: 500 g ai/ha
Summary of the method: as §2

[4] = test system: Italian ryegrass; experiment: Test C preemergence; type: in vivo, Lolium multiflorum
Summary of the method: as §1

[5] = test system: barnyardgrass; experiment: Test A preemergence; type: in vivo, Echinochloa crus-galli
Summary of the method: as §2

[6] = test system: corn; experiment: Test A postemergence; type: in vivo, Zea mays
Summary of the method: as §2

[7] = test system: Heteranthera limosa; experiment: Test B flooded paddy test; type: in vivo; settings: Flood, 250 g ai/ha, 0 to 100 scale where 0 is no effect and 100 is complete control
Summary of the method: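 Compound added straight to paddy water, with pots kept flooded 3 cm above soil, on plants grown to the 2-leaf stage. Visual scoring 0-100 (100 = complete control) against untreated controls after 13 to 15 greenhouse days.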

[8] = test system: large (Lg) crabgrass; experiment: Test A preemergence; type: in vivo, Digitaria sanguinalis; settings: for Crabgrass, Large plant response rating: 500 g ai/ha
Summary of the method: as §2

[9] = test system: morningglory; experiment: Test A postemergence; type: in vivo, Ipomoea spp.; settings: 0 to 100 scale where 0 is no effect and 100 is complete control; for Morningglory plant response rating: 125 g ai/ha; for Plant response rating, Morningglory: 500 g ai/ha
Summary of the method: as §2

[10] = test system: oilseed rape; experiment: Test C preemergence; type: in vivo, Brassica napus
Summary of the method: as §1

[11] = 16 g ai/ha, preemergence, scale 0 to 100 (0 no effect, 100 complete control)
[12] = 125 g ai/ha, preemergence, scale 0 (no effect) to 100 (complete control)
[13] = Preemergence, 62 g ai/ha, scale 0 to 100, 0 no effect, 100 complete control
[14] = 125 g ai/ha, 0 to 100 scale where 0 is no effect and 100 is complete control
[15] = 500 g ai/ha, 0 to 100 scale where 0 is no effect and 100 is complete control
[16] = 0 to 100 scale where 0 is no effect and 100 is complete control
[17] = 62 g ai/ha, preemergence, scale 0 (no effect) to 100 (complete control)
[18] = Preemergence, 31 g ai/ha, scale 0 to 100, 0 no effect, 100 complete control
[19] = 31 g ai/ha, 0 to 100 scale, 0 no effect, 100 complete control

Compound	Ragweed plant response rating [1, 11]	Ragweed plant response rating [1, 12]	Foxtail, Giant plant response rating [2, 14]	Plant response rating, Foxtail, Giant [2, 15]	Wheat plant response rating (0 to 100 scale) ([3]; 125 g ai/ha)	Wheat plant response rating [3, 16]	Ryegrass, Italian plant response rating [4, 11]	Ryegrass, Italian plant response rating [4, 12]	Barnyardgrass plant response rating (0 to 100 scale, 0 is no effect, 100 is complete control) ([5]; 125 g ai/ha)	Barnyardgrass plant response rating [5, 15]	Corn plant response rating [6, 14]	Plant response rating, Corn [6, 15]	Plant response rating, Ducksalad [7]	Plant response rating, Morningglory [9]	Oilseed Rape plant response rating [10, 11]	Oilseed Rape plant response rating [10, 12]	Ragweed plant response rating [1, 17]	Ryegrass, Italian plant response rating [4, 17]	Plant response rating, Barnyardgrass [5, 14]	Oilseed Rape plant response rating [10, 17]	other results
CCOc1cnn(-c2ccccc2Oc2ncc(Cl)cn2)c1 [Compound 187]	55	55	60	90	0	40	0	5	80	100	10	70	65	100	70	90	–	–	–	–	Plant response rating, Ragweed [1, 13]: 45; Plant response rating, Ryegrass, Italian [4, 13]: 0; Crabgrass, Large plant response rating (0 to 100 scale) ([8]; 125 g ai/ha): 100; Crabgrass, Large plant response rating [8, 16]: 100; Morningglory plant response rating [9]: 70; Plant response rating, Oilseed Rape [10, 13]: 90
Fc1cnc(Oc2cccc(C(F)F)c2-n2cc(Br)cn2)nc1 [Compound 112]	0	100	–	90	–	–	0	30	–	–	–	70	90	100	65	100	35	5	70	95	Plant response rating, Ragweed [1, 18]: 0; Plant response rating, Foxtail, Giant [2, 14]: 30; Plant response rating, Wheat [3, 14]: 0; Plant response rating, Ryegrass, Italian [4, 18]: 0; Barnyardgrass plant response rating ([5]; 500 g ai/ha, 0 to 100 scale, 0 no effect, 100 complete control, approx. 10 days): 100; Plant response rating, Corn [6, 14]: 30; Plant response rating, Crabgrass, Large [8, 14]: 100; Crabgrass, Large plant response rating ([8]; 0 to 100 scale, 0 no effect, 100 complete control, approx. 10 days): 100; Plant response rating, Oilseed Rape [10, 18]: 90
N#Cc1cccc(Oc2ncc(Cl)cn2)c1-n1cnc(C(F)(F)F)c1 [Compound 252, 3-[(5-chloro-2-pyrimidinyl)oxy]-2-[4-(trifluoromethyl)-1H-imidazol-1-yl]benzonitrile]	–	–	–	–	–	–	–	–	100	–	–	–	–	–	–	–	–	–	–	–	pest or weed control at 16 g/ha ([1]; Ambrosia artemisiifolia, pre-emergence, 16 g ai/ha, preemergence, scale 0 to 100 (0 no effect, 100 complete control), read-out: Ragweed plant response rating): 40%; pest or weed control at 125 g/ha ([1]; Ambrosia artemisiifolia, pre-emergence, 125 g ai/ha, preemergence, scale 0 (no effect) to 100 (complete control), read-out: Ragweed plant response rating): 100%; pest or weed control at 62 g/ha ([1]; Ambrosia artemisiifolia, pre-emergence, Preemergence, 62 g ai/ha, scale 0 to 100, 0 no effect, 100 complete control, read-out: Plant response rating, Ragweed): 98%; pest or weed control at 31 g/ha ([2]; Setaria faberi, post-emergence, 240 h, 31 g ai/ha, 0 to 100 scale, 0 no effect, 100 complete control, read-out: Plant response rating, Foxtail, Giant): 20%; pest or weed control at 125 g/ha ([2]; Setaria faberi, post-emergence, 240 h, 125 g ai/ha, 0 to 100 scale, 0 no effect, 100 complete control, read-out: Plant response rating, Foxtail, Giant): 100%; pest or weed control at 500 g/ha ([2]; Setaria faberi, post-emergence, 240 h, 500 g ai/ha, 0 to 100 scale where 0 is no effect and 100 is complete control, read-out: Plant response rating, Foxtail, Giant): 100%; pest or weed control at 16 g/ha ([4]; Lolium multiflorum, pre-emergence, 16 g ai/ha, preemergence, scale 0 to 100 (0 no effect, 100 complete control), read-out: Ryegrass, Italian plant response rating): 0%; pest or weed control at 125 g/ha ([4]; Lolium multiflorum, pre-emergence, 125 g ai/ha, preemergence, scale 0 (no effect) to 100 (complete control), read-out: Ryegrass, Italian plant response rating): 90%; pest or weed control at 62 g/ha ([4]; Lolium multiflorum, pre-emergence, Preemergence, 62 g ai/ha, scale 0 to 100, 0 no effect, 100 complete control, read-out: Plant response rating, Ryegrass, Italian): 60%; pest or weed control at 31 g/ha ([5]; Echinochloa crus-galli, pre-emergence, 240 h, 31 g ai/ha, 0 to 100 scale where 0 is no effect and 100 is complete control, visual, approximately 10 days, read-out: Plant response rating, Barnyardgrass): 70%; pest or weed control at 500 g/ha ([5]; Echinochloa crus-galli, pre-emergence, 240 h, 500 g ai/ha, 0 to 100 scale where 0 is no effect and 100 is complete control, read-out: Barnyardgrass plant response rating): 100%; Corn plant response rating (crop injury, 0 = no effect, 100 = complete kill) at 31 g/ha ([6]; Zea mays, post-emergence, 240 h, 31 g ai/ha, 0 to 100 scale, 0 no effect, 100 complete control): 20%; Corn plant response rating (crop injury, 0 = no effect, 100 = complete kill) at 125 g/ha ([6]; Zea mays, post-emergence, 240 h, 125 g ai/ha, 0 to 100 scale, 0 no effect, 100 complete control): 60%; Corn plant response rating (crop injury, 0 = no effect, 100 = complete kill) at 500 g/ha ([6]; Zea mays, post-emergence, 240 h, 500 g ai/ha, 0 to 100 scale where 0 is no effect and 100 is complete control): 90%; pest or weed control at 250 g/ha ([7]; Heteranthera limosa, read-out: Plant response rating, Ducksalad): 75%; plant injury at 16 g/ha ([10]; Brassica napus, pre-emergence, 16 g ai/ha, preemergence, scale 0 to 100 (0 no effect, 100 complete control), read-out: Oilseed Rape plant response rating): 80%; plant injury at 125 g/ha ([10]; Brassica napus, pre-emergence, 125 g ai/ha, preemergence, scale 0 (no effect) to 100 (complete control), read-out: Oilseed Rape plant response rating): 100%; plant injury at 62 g/ha ([10]; Brassica napus, pre-emergence, Preemergence, 62 g ai/ha, scale 0 to 100, 0 no effect, 100 complete control, read-out: Plant response rating, Oilseed Rape): 100%
FCc1cccc(Oc2ncc(F)cn2)c1-n1cc(C(F)(F)F)cn1 [Compound 118]	70	100	–	–	–	–	0	100	–	–	–	–	90	–	98	100	100	70	100	100	Plant response rating, Ragweed [1, 18]: 100; Plant response rating, Foxtail, Giant [2, 19]: 30; Plant response rating, Foxtail, Giant [2, 14]: 80; Plant response rating, Ryegrass, Italian [4, 18]: 40; Barnyardgrass plant response rating (0 to 100 scale) ([5]; 31 g ai/ha): 50; Plant response rating, Corn [6, 19]: 10; Plant response rating, Corn [6, 14]: 50; Plant response rating, Oilseed Rape [10, 18]: 100
Fc1cccc(Oc2ncc(Cl)cn2)c1-n1cc(I)cn1 [Compound 179]	0	10	80	90	0	30	0	70	–	100	30	60	80	100	60	100	0	30	20	98	Plant response rating, Crabgrass, Large [8, 14]: 100; Crabgrass, Large plant response rating [8, 16]: 100; Morningglory plant response rating [9]: 70
N#Cc1cnn(-c2c(CF)cccc2Oc2ncc(F)cn2)c1 [Compound 151]	55	100	40	–	–	–	0	45	–	–	40	–	70	–	95	100	85	35	60	100	Plant response rating, Foxtail, Giant [2, 19]: 0; Plant response rating, Barnyardgrass ([5]; 31 g ai/ha, 0 to 100 scale where 0 is no effect and 100 is complete control, visual, approximately 10 days): 20; Plant response rating, Corn [6, 19]: 0
